# Laboratory results as given in article PMC4045324 (Biochemistry, 2014).
# Marks after values point to notes of the source that are not given here.
# Assays:
# [1] = system: CC(=O)[C@@H](O)[C@H](O)COP(=O)(O)O; assay: purified protein, by the assay type; conditions: pH 7.5; 25.0 °C
# [2] = target: wild-type MtDXR (Mycobacterium tuberculosis, UniProt P9WNS1); format: binding
# [3] = target: DXR; conditions: read-out: Ki values; cited from earlier work
# [4] = system: M. tuberculosis; conditions: cited from earlier work
# [5] = system: P. falciparum; conditions: cited from earlier work
# [6] = target: wild-type MtDXR; conditions: pH 7.6; cited from earlier work
# [7] = system: wild-type MtDXR; conditions: ref Liu and Murkin 17; cited from earlier work
# wild-type MtDXR (Mycobacterium tuberculosis, UniProt P9WNS1), sequence (P9WNS1 1-389): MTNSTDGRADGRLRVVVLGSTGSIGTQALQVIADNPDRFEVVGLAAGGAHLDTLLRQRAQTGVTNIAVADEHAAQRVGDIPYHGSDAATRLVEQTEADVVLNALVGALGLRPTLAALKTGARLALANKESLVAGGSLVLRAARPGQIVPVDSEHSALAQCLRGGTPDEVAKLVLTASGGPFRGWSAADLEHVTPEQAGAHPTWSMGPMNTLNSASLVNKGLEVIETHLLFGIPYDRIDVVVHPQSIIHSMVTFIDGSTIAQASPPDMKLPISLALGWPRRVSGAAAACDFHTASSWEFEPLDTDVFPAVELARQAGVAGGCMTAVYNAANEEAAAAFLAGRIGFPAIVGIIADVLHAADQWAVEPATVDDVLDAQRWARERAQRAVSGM
compound,measurement,setting,value
(Mycobacterium tuberculosis H37Rv),Km,[1],137 ± 12 µM
same,kcat,[1],4.2 ± 0.2 s⁻¹
same,kcat/Km,[1],31000 ± 2000 M⁻¹ s⁻¹
O=CN(O)CCCP(=O)(O)O [fosmidomycin],enthalpy share of total binding energy,[2],50%
same,ΔG°,[2]; pH 7.5,–9.82 ± 0.08 kcal/mol
same,ΔH°,[2]; pH 7.5,–4.8 ± 0.7 kcal/mol
same,–TΔS°,[2]; pH 7.5,–5.0 ± 0.7 kcal/mol
same,Ki,[3],10 to 100 nM
same,activity against M. tuberculosis,[4],poorly active
same,treatment of malaria caused by P. falciparum,[5],effective
same,Kd,[6],290 nM
same,ΔG°,[6],–8.34 ^e kcal/mol
same,ΔH°,[6],–6.0 ^e kcal/mol
same,–TΔS°,[6],–2.3 ^e kcal/mol
"CC(=O)[C@@H](O)[C@H](O)COP(=O)(O)O [DXP, 1-deoxy-D-xylulose 5-phosphate]",Km,[7],115 ± 7 µM
